Test results reported in ChEMBL document CHEMBL1201862, “PubChem BioAssay data set” (2004).
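Assay format: 96-well plates, 48-hour exposure. GI50: concentration for 50% inhibition of growth.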 Calls of active or inactive are those of the source. Cut-off read from the data, not from the text of the source: active = GI50 up to about 1.1 µM and inactive = higher.

Columns and labels:
Assay in all cases: DTP human tumour cell line panel, 48 h
SW-620 = tested on: SW-620
OVCAR-4 = tested on: OVCAR-4
HCC 2998 = tested on: HCC 2998
Malme-3M = tested on: Malme-3M
HCT-15 = tested on: HCT-15
U-251 = tested on: U-251
NCI-H23 = tested on: NCI-H23
DMS-114 = tested on: DMS-114
RXF 393 = tested on: RXF 393
ACHN = tested on: ACHN
IGROV-1 = tested on: IGROV-1
K562 = tested on: K562
NCI-H226 = tested on: NCI-H226
SK-OV-3 = tested on: SK-OV-3
M14 = tested on: M14
UACC-62 = tested on: UACC-62
HOP-92 = tested on: HOP-92
HCT-116 = tested on: HCT-116
Hs-578T = tested on: Hs-578T

Structure (SMILES) | GI50 (SW-620) | GI50 (OVCAR-4) | GI50 (HCC 2998) | GI50 (Malme-3M) | GI50 (HCT-15) [µM] | GI50 (U-251) | GI50 (NCI-H23) | GI50 (DMS-114) | GI50 (RXF 393) | GI50 (ACHN) | GI50 (IGROV-1) | GI50 (K562) | GI50 (NCI-H226) | GI50 (SK-OV-3) | GI50 (M14) | GI50 (UACC-62) | GI50 (HOP-92) | GI50 (HCT-116) | GI50 (Hs-578T)
CC1(C)OC2C(CCP(=O)(O)O)OC(c3nc(C(N)=O)cs3)C2O1 (stereo not drawn) | > 100 µM (inactive) | > 100 µM (inactive) | > 100 µM (inactive) | > 100 µM (inactive) | > 100 | > 100 µM (inactive) | > 100 µM (inactive) | > 100 µM (inactive) | > 100 µM (inactive) | > 100 µM (inactive) | > 100 µM (inactive) | > 100 µM (inactive) | > 100 µM (inactive) | > 100 µM (inactive) | > 100 µM (inactive) | > 100 µM (inactive) | > 100 µM (inactive) | > 100 µM (inactive) | –
C[C@]12CC[C@H](OC(=O)Cc3ccc(N(CCCl)CCCl)cc3)CC1CC[C@@H]1C2CC[C@]2(C)NC(=O)CCC12 (stereo partly drawn) | 9.33 µM (inactive) | 12.2 µM (inactive) | 18.7 µM (inactive) | 15.8 µM (inactive) | 13.9 | 11.2 µM (inactive) | 11.8 µM (inactive) | 6.31 µM (inactive) | 7.74 µM (inactive) | 4.04 µM (inactive) | 14 µM (inactive) | 4.06 µM (inactive) | 15.5 µM (inactive) | 17 µM (inactive) | 13.2 µM (inactive) | 6.68 µM (inactive) | 15.6 µM (inactive) | 5.11 µM (inactive) | –
CCOC1=C2C(C)(CCC3[C@@]4(C)C=CC(=O)C(C)(C)C4CC(O)[C@@]23C)C(c2ccoc2)C1=O (stereo partly drawn) | 17.2 µM (inactive) | 17.2 µM (inactive) | 16.3 µM (inactive) | > 10 µM (inactive) | 11.7 | 18 µM (inactive) | 13.1 µM (inactive) | 15.6 µM (inactive) | 16.1 µM (inactive) | 18.4 µM (inactive) | 12.4 µM (inactive) | 7.24 µM (inactive) | 22 µM (inactive) | 26.4 µM (inactive) | 21.8 µM (inactive) | 18.7 µM (inactive) | 17.9 µM (inactive) | 11.3 µM (inactive) | –
CC[C@@]1(O)C(=O)OCc2c1cc1n(c2=O)Cc2cc3c(OC)cccc3nc2-1 | 0.196 µM (active) | 1.06 µM (active) | – | 0.348 µM (active) | 0.805 | – | < 0.1 µM (active) | < 0.01 µM (active) | 0.308 µM (active) | – | – | 0.171 µM (active) | 0.267 µM (active) | 0.117 µM (active) | 0.2 µM (active) | < 0.1 µM (active) | 0.0432 µM (active) | – | 12.8 µM (inactive)
